Data reported in US6465491B2, “6-phenylpyridyl-2-amine derivatives” (Pfizer Inc., priority 1996, dated 2002).
Counter-ions that a name gives are not always drawn.

Compound `Nc1cccc(-c2ccc(CCN3CCN(CCCc4ccccc4)CC3)cc2)n1` (as salt: hydrochloride) [Example 40, 6-(4-{2-[4-(3-Phenyl-propyl)-piperazin-1-yl]-ethyl}-phenyl)-pyridin-2-ylamine] has a melting point of 258 to 264 °C.
For `NC(=O)CNC1C2CN(CCc3ccc(-c4cccc(N)n4)cc3)CC21` (stereo not drawn) [Example 52, 2-(3-{2-[4-(6-Amino-pyridin-2-yl)-phenyl]-ethyl}-3-aza-bicyclo[3.1.0]hex-6-ylamino)-acetamide], the melting point was 140 °C (dec.).
`Nc1cccc(-c2ccc(CCN3CCN(C(=O)Oc4ccccc4)CC3)cc2)n1` showed a melting point of 102 to 104 °C.
For `Nc1cccc(-c2ccc(CCN3CCN(c4nnnn4-c4ccccc4)CC3)cc2)n1` [Example 27, 6-(4-{2-[4-(1 -Phenyl-1H-tetrazol-5-yl)-piperazin-1-yl]-ethyl}-phenyl)-pyridin-2-ylamine], the melting point was 212 to 214 °C.
In the case of `Nc1cccc(-c2ccc(CCN3CCC(c4ccccc4)C3)cc2)n1` (stereo not drawn) (as salt: hydrochloride) [Example 26, 6-{4-[2-(3-Phenyl-pyrrolidin-1-yl)-ethyl]-phenyl}-pyridin-2-ylamine], the melting point is reported as 100 °C (dec.).
With `Nc1cccc(-c2ccc(CCNC3CC4COCC(C3)N4)cc2)n1` (stereo not drawn) (as salt: hydrochloride) [107] the melting point was 170 °C (dec.).
With `Nc1cccc(-c2ccc(CCN3Cc4ccccc4C3)cc2)n1` [Example 22, 6-{4-[2-(1,3-Dihydro-isoindol-2-yl)-ethyl]-phenyl}-pyridin-2-ylamine] the melting point was 140 to 143 °C.
For `Nc1cccc(-c2ccc(CCN3CCC4(CC3)NC(=O)N(Cc3ccccc3)C4=O)cc2)n1` (as salt: hydrochloride) [Example 43, 8-{2-[4-(6-Amino-pyridin-2-yl)-phenyl]-ethyl}-3-benzyl-1,3,8-triaza-spiro[4.5]decane-2,4-dione], the melting point was 190 °C (dec.).
With `CC(C)CN1CCN(CCc2ccc(-c3cccc(N)n3)cc2)CC1` [Example 17, 6-{4-[2-(4-Isobutyl-piperazin-1-yl)-ethyl]-phenyl}-pyridin-2-ylamine] the melting point was 85 to 88 °C.
In the case of `COc1ccc(NC(=O)N2CCN(CCc3ccc(-c4cccc(N)n4)cc3)CC2)cc1` [Example 31, 4-{2-[4-(6-Amino-pyridin-2-yl)-phenyl]-ethyl}-piperazine-1-carboxylic acid (4-methoxy-phenyl)-amide], the melting point is reported as 182 to 184 °C.
With `Nc1cccc(-c2ccc(CNCCc3ccccc3)cc2)n1` (as salt: hydrochloride) [Example 135, 6-[4-(Phenethylamino-methyl)-phenyl]-pyridin-2-ylamine] the melting point was 236 to 238 °C.
In the case of `Nc1cccc(-c2ccc(CCN3CC4C(C3)C4NCCc3ccccc3)cc2)n1` (stereo not drawn) (as salt: hydrochloride) [Example 46, (3-{2-[4-(6-Amino-pyridin-2-yl)-phenyl]-ethyl}-3-aza-bicyclo[3.1.0]hex-6-yl)-phenethyl-amine], the melting point is reported as 165 °C (dec.).
